Experimental data as given in ChEMBL document CHEMBL4651402, “Screening of ~5500 FDA-approved drugs and clinical candidates for anti-SARS-CoV-2 activity” (2021).

Test system: SARS-CoV-2
Test: microbe, parasite or virus in culture
Settings: Severe acute respiratory syndrome coronavirus 2, Vero C1008, 48 h

| SMILES | IC50 [µM] | IC50 (read-out: pIC50 (converted)) [µM] |
| --- | --- | --- |
| COc1c2occc2c(OC)c2c(=O)cc(C)oc12 [KHELLIN] | > 20 | > 20 |
| OC[C@H]1O[C@@H](n2cnc3c(NCc4ccco4)ncnc32)[C@H](O)[C@@H]1O [KINETIN RIBOSIDE] | > 20 | > 20 |
| c1coc(CNc2ncnc3[nH]cnc23)c1 [KINETIN] | > 20 | > 20 |
| O=c1cc(CO)occ1O [KOJIC ACID] | > 20 | > 20 |
| CCCCCCCOC(=O)NC1=NC(=O)N([C@H]2C[C@H](O)[C@@H](CO)O2)CN1 [KP-1461] | > 20 | > 20 |
| O=C(c1ccc(/C=C/c2n[nH]c3ccccc23)cc1)N1CCNCC1 [KW-2449] | > 20 | > 20 |
| CCc1c(O)cc(O)c(C(=O)c2ccc(OCCN3CCOCC3)c(OC)c2)c1CC(=O)N(CCOC)CCOC [KW-2478 FREE BASE] | > 20 | > 20 |
| Nc1ccccc1C(=O)CC(N)C(=O)O (stereo not drawn) [KYNURENINE] | > 20 | > 20 |
| Cc1cccc(NC(=O)N[C@@H]2N=C(c3ccccc3)c3ccccc3N(C)C2=O)c1 [L-365260] | > 20 | > 20 |
| NC(=O)NCCC[C@H](N)C(=O)O [L-CITRULLINE] | > 20 | > 20 |
| C[C@H](O)C(=O)O [L-LACTIC ACID] | > 20 | > 20 |
| N[C@H](CO)Cc1ccccc1 [L-PHENYLALANINOL] | > 20 | > 20 |
| CC(CCc1ccccc1)NCC(O)c1ccc(O)c(C(N)=O)c1 (stereo not drawn) [LABETALOL] | > 20 | > 20 |
| OC[C@@H](O)[C@@H](O[C@@H]1O[C@H](CO)[C@H](O)[C@H](O)[C@H]1O)[C@H](O)[C@@H](O)CO [LACTITOL] | > 20 | > 20 |
| OC[C@H]1O[C@@H](O[C@@H]2[C@@H](CO)O[C@](O)(CO)[C@H]2O)[C@H](O)[C@@H](O)[C@H]1O [LACTULOSE] | > 20 | > 20 |
| O=C(C[S+]([O-])Cc1ccco1)NC/C=C\COc1cc(CN2CCCCC2)ccn1 (stereo not drawn) [LAFUTIDINE] | > 20 | > 20 |
| N=C(N)c1ccc(C(=O)N[C@@H](Cc2ccc(O)cc2)C(=O)N2CCC(OCC(=O)O)CC2)cc1 [LAMIFIBAN] | > 20 | > 20 |
| Nc1ccn([C@@H]2CS[C@H](CO)O2)c(=O)n1 [LAMIVUDINE] | > 50.1 | > 50.1 |
| Nc1nnc(-c2cccc(Cl)c2Cl)c(N)n1 [LAMOTRIGINE] | > 20 | > 20 |
| Cc1c(OCC(F)(F)F)ccnc1C[S+]([O-])c1nc2ccccc2[nH]1 (stereo not drawn) [LANSOPRAZOLE] | > 20 | > 20 |
| CC(C)=CCC1=C(O)C(=O)c2ccccc2C1=O [LAPACHOL] | > 20 | > 20 |
| COc1cccc([C@H]2O[C@H](CC(=O)N3CCC(CC(=O)O)CC3)C(=O)N(CC(C)(C)COC(C)=O)c3ccc(Cl)cc32)c1OC [LAPAQUISTAT ACETATE] | > 20 | > 20 |
| CS(=O)(=O)CCNCc1ccc(-c2ccc3ncnc(Nc4ccc(OCc5cccc(F)c5)c(Cl)c4)c3c2)o1 [LAPATINIB] | > 20 | > 20 |
| CCN(C(=O)c1c(O)c2c(Cl)cccc2n(C)c1=O)c1ccccc1 [LAQUINIMOD] | > 20 | > 20 |
| Oc1ccc2c(c1)CC[C@H](c1ccccc1)[C@@H]2c1ccc(OCCN2CCCC2)cc1 [LASOFOXIFENE] | > 20 | > 20 |

| SMILES | IC50 [µM] | IC50 (read-out: pIC50 (converted)) [µM] |
| --- | --- | --- |
| CC(C)OC(=O)CCC/C=C\C[C@@H]1[C@@H](CC[C@@H](O)CCc2ccccc2)[C@H](O)C[C@@H]1O [LATANOPROST] | > 20 | > 20 |
| Cc1ccc2c(c1)c1c(n2CCc2ccc(C)nc2)CCN(C)C1 [LATREPIRDINE] | > 20 | > 20 |
| COc1ccc(CC2c3cc(OC)c(OC)cc3CCN2C)cc1OC (stereo not drawn) [LAUDANOSINE] | > 20 | > 20 |
| CCCCCCCCCCCCN1CCCCCC1=O [LAUROCAPRAM] | > 20 | > 20 |
| Cn1nc(CO)nc1NCCCOc1cccc(CN2CCCCC2)c1 [LAVOLTIDINE] | > 20 | > 20 |
| Cc1cc(OC(=O)c2c(C)cc(O)cc2O)cc(O)c1C(=O)O [LECANORIC ACID] | > 20 | > 20 |
| Cc1oncc1C(=O)Nc1ccc(C(F)(F)F)cc1 [LEFLUNOMIDE] | > 20 | > 20 |
| CCN(CC)CCOc1ccccc1-n1c(C)ccc1-c1ccccc1 [LEIOPYRROLE] | > 20 | > 20 |
| Nc1cccc2c1CN(C1CCC(=O)NC1=O)C2=O (stereo not drawn) [LENALIDOMIDE] | > 20 | > 20 |
| O=C(CCCN1CCC(C(=O)c2ccc(F)cc2)CC1)c1ccc(F)cc1 [LENPERONE] | > 20 | > 20 |
| COc1cc2nccc(Oc3ccc(NC(=O)NC4CC4)c(Cl)c3)c2cc1C(N)=O [LENVATINIB] | > 20 | > 20 |
| COC(=O)C1=C(C)NC(C)=C(C(=O)OC(C)(C)CN(C)CCC(c2ccccc2)c2ccccc2)C1c1cccc([N+](=O)[O-])c1 (stereo not drawn) [LERCANIDIPINE] | > 20 | > 20 |
| CC(C)N1CCN(c2ccc(Nc3ncc4cc5n(c4n3)C3(CCCCC3)CNC5=O)nc2)CC1 [LEROCICLIB] | > 20 | > 20 |
| CCc1nn(CCO)c(CC)c1Oc1cc(C#N)cc(C#N)c1 [LERSIVIRINE] | > 20 | > 20 |
| C[C@]12O[C@H](C[C@]1(O)CO)n1c3ccccc3c3c4c(c5c6ccccc6n2c5c31)CNC4=O [LESTAURTINIB] | > 20 | > 20 |
| N#CC(c1ccc(F)cc1)c1c(Cl)cc(-n2ncc(=O)[nH]c2=O)cc1Cl (stereo not drawn) [LETRAZURIL] | > 20 | > 20 |
| N#Cc1ccc(C(c2ccc(C#N)cc2)n2cncn2)cc1 [LETROZOLE] | > 20 | > 20 |
| CC(C)C[C@H](N)C(=O)O [LEUCINE] | > 20 | > 20 |
| Nc1nc(=O)c2c([nH]1)NCC(CNc1ccc(C(=O)N[C@@H](CCC(=O)O)C(=O)O)cc1)N2C=O (stereo partly drawn) [LEUCOVORIN] | > 20 | > 20 |
| C[C@@H](N)Cc1ccccc1 [LEVAMFETAMINE] | > 20 | > 20 |
| c1ccc([C@H]2CN3CCSC3=N2)cc1 [LEVAMISOLE] | > 20 | > 20 |
| CC1(C)Oc2ccc(C#N)cc2[C@@H](N2CCCC2=O)[C@@H]1O [LEVCROMAKALIM] | > 20 | > 20 |
| N[C@H]1CONC1=O [LEVCYCLOSERINE] | > 20 | > 20 |
| CC(C)(C)NC[C@H](O)COc1cccc2c1CCCC2=O [LEVOBUNOLOL] | > 20 | > 20 |
| C[C@@H]1CN([C@H]2CC[C@](C#N)(c3ccc(F)cc3)CC2)CC[C@]1(C(=O)O)c1ccccc1 [LEVOCABASTINE] | > 20 | > 20 |

| SMILES | IC50 [µM] | IC50 (read-out: pIC50 (converted)) [µM] |
| --- | --- | --- |
| C[N+](C)(C)C[C@H](O)CC(=O)[O-] [LEVOCARNITINE] | > 20 | > 20 |
| N[C@@H](Cc1ccc(O)c(O)c1)C(=O)O [LEVODOPA] | > 20 | > 20 |
| C[C@@H](CN1CCOCC1)C(C(=O)N1CCCC1)(c1ccccc1)c1ccccc1 [LEVOMORAMIDE] | > 20 | > 20 |
| CC(=O)Oc1cc(O[C@H](C)CCCc2ccccc2)cc2c1[C@@H]1C[C@H](O)CC[C@H]1[C@H](C)N2 [LEVONANTRADOL] | > 20 | > 20 |
| C[C@H](N)[C@H](O)c1ccc(O)c(O)c1 [LEVONORDEFRIN] | > 20 | > 20 |
| CN[C@@H](C)CC1CCCCC1 [LEVOPROPYLHEXEDRINE] | > 20 | > 20 |
| CN1CC[C@]23CCCC[C@H]2[C@H]1Cc1ccc(O)cc13 [LEVORPHANOL] | > 20 | > 20 |
| C[C@@H]1CC(=O)NN=C1c1ccc(NN=C(C#N)C#N)cc1 [LEVOSIMENDAN] | > 20 | > 20 |
| N[C@@H](Cc1cc(I)c(Oc2cc(I)c(O)c(I)c2)c(I)c1)C(=O)O [LEVOTHYROXINE] | > 20 | > 20 |
| Clc1cccc(C(c2ccc3[nH]cnc3c2)n2ccnc2)c1 (stereo not drawn) [LIAROZOLE] | > 20 | > 20 |
| C=CC(C)(C)c1cc(/C=C/C(=O)c2ccc(O)cc2)c(OC)cc1O [LICOAGROCHACONE A] | > 20 | > 20 |
| CC1(C)Cc2c(-c3ccccc3)c(-c3ccc(Cl)cc3)c(CC(=O)O)n2C1 [LICOFELONE] | > 20 | > 20 |
| CNC(=N)NC(=O)Nc1c(C)cccc1C [LIDAMIDINE] | > 20 | > 20 |
| COc1ccc(C2CNC(=O)C2)cc1OCCCN1CCC(C(=O)c2ccc(F)cc2)CC1 (stereo not drawn) [LIDANSERIN] | > 20 | > 20 |
| CCN(CC)CC(=O)Nc1c(C)cccc1C [LIDOCAINE] | > 20 | > 20 |
| Cc1cccc(C)c1NC(=O)CN(CC(=O)O)CC(=O)O [LIDOFENIN] | > 20 | > 20 |
| Cc1ccc(-c2nc(CN3CCN(C(c4ccccc4)c4ccccc4)CC3)c(C)[nH]2)cc1 [LIFARIZINE] | > 20 | > 20 |
| Cc1nc(C)c(C)nc1C [LIGUSTRAZINE] | > 20 | > 20 |
| CC(C)(C)c1ccc(Oc2ccc(N)cn2)cc1 [LIMANTRAFIN] | > 20 | > 20 |
| CC#CCn1c(N2CCC[C@@H](N)C2)nc2c1c(=O)n(Cc1nc(C)c3ccccc3n1)c(=O)n2C [LINAGLIPTIN] | > 20 | > 20 |
| Cc1cccc(C)c1CNc1cc(C(=O)NCCO)cn2c(C)c(C)nc12 [LINAPRAZAN] | > 20 | > 20 |
| CCC[C@@H]1C[C@@H](C(=O)N[C@@H]([C@H]2O[C@H](SC)[C@H](O)[C@@H](O)[C@H]2O)[C@@H](C)O)N(C)C1 [LINCOMYCIN] | > 20 | > 20 |
| CC(=O)NC[C@H]1CN(c2ccc(N3CCOCC3)c(F)c2)C(=O)O1 [LINEZOLID] | > 20 | > 20 |
| Cc1ccc(F)c(NC(=O)Nc2ccc(-c3cccc4[nH]nc(N)c34)cc2)c1 [LINIFANIB] | > 20 | > 20 |
